According to ChEMBL document CHEMBL4196117, “PK/PD Disconnect Observed with a Reversible Endothelial Lipase Inhibitor” (ACS Med Chem Lett, 2018):
The source made the active and inactive calls. The calls are words filed in the database; no cut-off is given here.

Columns and labels:
Endothelial lipase [1] = molecular target: T1, Endothelial lipase (Homo sapiens, UniProt Q9Y5X9); experiment: Inhibition of endothelial lipase in human HT1080 cells using PED-A1 containing DMPG vesicles as substrate pretreated for 20 mins followed by substrate addition and measured every 20 secs for 10 mins by fluorescence assay; type: cell-based
T1 sequence (Q9Y5X9 whole entry): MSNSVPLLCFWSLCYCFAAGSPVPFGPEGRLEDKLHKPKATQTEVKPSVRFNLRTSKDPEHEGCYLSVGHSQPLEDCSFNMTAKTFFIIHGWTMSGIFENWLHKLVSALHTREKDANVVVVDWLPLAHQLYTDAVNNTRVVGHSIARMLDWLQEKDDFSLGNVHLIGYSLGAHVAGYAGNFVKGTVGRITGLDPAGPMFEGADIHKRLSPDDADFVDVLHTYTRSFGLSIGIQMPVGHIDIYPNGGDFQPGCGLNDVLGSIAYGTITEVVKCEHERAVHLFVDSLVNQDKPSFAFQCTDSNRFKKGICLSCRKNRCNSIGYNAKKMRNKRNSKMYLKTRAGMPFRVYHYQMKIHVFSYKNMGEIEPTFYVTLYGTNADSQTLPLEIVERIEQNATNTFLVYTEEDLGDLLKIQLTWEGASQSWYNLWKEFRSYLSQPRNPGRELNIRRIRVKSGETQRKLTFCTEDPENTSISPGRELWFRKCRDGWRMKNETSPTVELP

Endothelial lipase [2] = molecular target: T1, Endothelial lipase; experiment: Inhibition of endothelial lipase in human HT1080 cells using HDL as substrate pretreated for 10 mins followed by substrate addition and measured after 30 mins by LC/MS/MS analysis; type: cell-based
[3] = molecular target: T2, Endothelial lipase (Homo sapiens) (UniProt Q9Y5X9); experiment: Ratio of IC50 for endothelial lipase in human HT1080 cells using HDL as substrate to IC50 for endothelial lipase in human HT1080 cells using PED-A1 containing DMPG vesicles as substrate; type: cell-based
T2 sequence (whole entry): T1 sequence (Q9Y5X9 whole entry)

[4] = molecular target: T2, Endothelial lipase (Homo sapiens); experiment: Competitive inhibition of endothelial lipase in human HT1080 cells using varying level of HDL as substrate pretreated for 10 mins followed by substrate addition and measured after 30 mins by LC/MS/MS analysis; type: cell-based
[5] = molecular target: T3, Endothelial lipase (Mus musculus) (UniProt Q9WVG5); experiment: Competitive inhibition of recombinant mouse endothelial lipase expressed in HEK293F cells using varying levels of HDL as substrate pretreated for 10 mins followed by substrate addition and measured after 30 mins by LC/MS/MS analysis
T3 sequence (whole entry): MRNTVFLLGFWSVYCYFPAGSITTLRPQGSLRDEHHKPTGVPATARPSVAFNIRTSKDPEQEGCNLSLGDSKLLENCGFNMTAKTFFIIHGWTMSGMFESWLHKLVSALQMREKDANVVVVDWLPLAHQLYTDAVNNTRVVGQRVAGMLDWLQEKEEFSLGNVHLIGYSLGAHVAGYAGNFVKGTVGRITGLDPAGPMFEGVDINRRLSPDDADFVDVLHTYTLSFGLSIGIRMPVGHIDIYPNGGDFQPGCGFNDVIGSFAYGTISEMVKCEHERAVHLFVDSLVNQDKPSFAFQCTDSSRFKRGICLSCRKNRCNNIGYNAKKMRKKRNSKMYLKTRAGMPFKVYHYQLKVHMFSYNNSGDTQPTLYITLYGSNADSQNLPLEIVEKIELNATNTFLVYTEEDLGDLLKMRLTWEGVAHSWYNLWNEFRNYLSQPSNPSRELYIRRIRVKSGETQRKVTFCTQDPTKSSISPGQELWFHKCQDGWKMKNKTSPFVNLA

Homo sapiens [6] = organism: Homo sapiens; experiment: Selectivity ratio of IC50 for recombinant human LPL expressed in African green monkey COS7 cells to IC50 for endothelial lipase in human HT1080 cells using PED-A1 containing DMPG vesicles as substrate; type: cell-based
Homo sapiens [7] = organism: Homo sapiens; experiment: Selectivity ratio of IC50 for MAGL (unknown origin) to IC50 for endothelial lipase in human HT1080 cells using PED-A1 containing DMPG vesicles as substrate; type: cell-based
Homo sapiens [8] = organism: Homo sapiens; experiment: Selectivity ratio of IC50 for recombinant human PL expressed in HEK293F cells to IC50 for endothelial lipase in human HT1080 cells using PED-A1 containing DMPG vesicles as substrate; type: cell-based
Homo sapiens [9] = organism: Homo sapiens; experiment: Selectivity ratio of IC50 for recombinant human HL expressed in African green monkey COS7 cells using HDL as substrate to IC50 for endothelial lipase in human HT1080 cells using HDL as substrate; type: cell-based
Mus musculus = experiment: Effect on plasma HDL-C level in C57BL/6J mouse at 10 to 50 mg/kg, po qd for 5 days measured at 1 day for 5 days; type: functional, organism-based
[10] = molecular target: T4, Hepatic triacylglycerol lipase (Homo sapiens, UniProt P11150); experiment: Inhibition of recombinant human HL expressed in African green monkey COS7 cells using HDL as substrate pretreated for 10 mins followed by substrate addition and measured after 30 mins by LC/MS/MS analysis
T4 sequence (P11150 whole entry): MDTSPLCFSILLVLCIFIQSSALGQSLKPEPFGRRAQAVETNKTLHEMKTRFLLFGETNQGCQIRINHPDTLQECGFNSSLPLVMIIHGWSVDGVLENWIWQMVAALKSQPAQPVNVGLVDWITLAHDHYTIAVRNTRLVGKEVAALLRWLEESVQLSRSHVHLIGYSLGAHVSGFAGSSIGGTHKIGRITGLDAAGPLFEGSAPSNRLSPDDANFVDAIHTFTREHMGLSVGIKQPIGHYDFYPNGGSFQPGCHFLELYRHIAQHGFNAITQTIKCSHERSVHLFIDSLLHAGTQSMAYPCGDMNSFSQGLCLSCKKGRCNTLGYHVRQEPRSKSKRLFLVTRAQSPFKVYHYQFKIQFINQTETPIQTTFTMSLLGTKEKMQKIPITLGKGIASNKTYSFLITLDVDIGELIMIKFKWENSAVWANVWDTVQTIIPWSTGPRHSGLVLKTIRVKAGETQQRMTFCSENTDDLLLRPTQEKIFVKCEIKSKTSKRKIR

Lipoprotein lipase = molecular target: T5, Lipoprotein lipase (Homo sapiens, UniProt P06858); experiment: Inhibition of recombinant human LPL expressed in African green monkey COS7 cells using DGGR/DMPG vesicles as substrate pretreated for 10 mins followed by substrate addition and measured for 5 mins
T5 sequence (P06858 whole entry): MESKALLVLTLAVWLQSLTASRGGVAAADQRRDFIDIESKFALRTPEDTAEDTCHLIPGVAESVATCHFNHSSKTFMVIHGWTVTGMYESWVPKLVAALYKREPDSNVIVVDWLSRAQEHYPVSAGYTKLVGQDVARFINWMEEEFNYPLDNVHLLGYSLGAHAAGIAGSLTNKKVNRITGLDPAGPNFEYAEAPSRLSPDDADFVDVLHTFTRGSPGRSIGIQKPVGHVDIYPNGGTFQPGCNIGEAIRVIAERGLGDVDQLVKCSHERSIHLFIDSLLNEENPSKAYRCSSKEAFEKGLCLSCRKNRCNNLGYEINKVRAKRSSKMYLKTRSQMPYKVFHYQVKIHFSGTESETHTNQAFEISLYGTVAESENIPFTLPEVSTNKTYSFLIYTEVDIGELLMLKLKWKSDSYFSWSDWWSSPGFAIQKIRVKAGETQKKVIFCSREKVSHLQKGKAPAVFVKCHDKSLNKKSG

[11] = Dissociation constant, pKa of the compound; type: physicochemical
[12] = Cmax in CD1 mouse at 1 mg/kg, iv administered as bolus dose; type: ADME, organism-based; parameters: dose 1 mg/kg, route intravenous; settings: in vivo
[13] = Total AUC in CD1 mouse at 1 mg/kg, iv administered as bolus dose; type: ADME, organism-based; parameters: dose 1 mg/kg, time AUCmax, route intravenous; settings: in vivo
[14] = Clearance in CD1 mouse at 1 mg/kg, iv administered as bolus dose; type: ADME, organism-based; settings: in vivo
[15] = Half life in CD1 mouse at 1 mg/kg, iv administered as bolus dose; type: ADME, organism-based; settings: in vivo
[16] = Cmax in CD1 mouse at 1 mg/kg, po administered as bolus dose; type: ADME, organism-based; parameters: dose 1 mg/kg, route oral; settings: in vivo
[17] = Total AUC in CD1 mouse at 1 mg/kg, po administered as bolus dose; type: ADME, organism-based; parameters: dose 1 mg/kg, route oral, time AUCmax; settings: in vivo
[18] = Half life in CD1 mouse at 1 mg/kg, po administered as bolus dose; type: ADME, organism-based; settings: in vivo
[19] = Oral bioavailability in CD1 mouse at 1 mg/kg administered as bolus dose; type: ADME, organism-based; settings: in vivo
[20] = molecular target: T2, Endothelial lipase (Homo sapiens); experiment: Reversible inhibition of endothelial lipase in human HT1080 cells at 2 uM using PED-A1 containing DMPG vesicles as substrate pretreated for 20 mins followed by compound washout prior to substrate addition and measured every 20 secs for 10 mins by fluorescence assay; type: cell-based

Row | IC50 (Endothelial lipase [1]) | IC50 (Endothelial lipase [2]) | Ratio IC50 [3] | SMILES | other results
1 | 5830 nM |  |  | CN1CC(C(=O)NCCCc2ccccc2)=C(O)C1=O | 
2 | 25 nM | 4210 nM | > 50 | CCN1CC(C(=O)NCCCc2ccc(Cl)c(Cl)c2)=C(NCCCN2CCCCC2)C1=O | 
3 |  |  |  | CCN1CC(C(=O)NC(C)CCc2ccc(Cl)c(Cl)c2)=C(O)C1=O (stereo in doubt; 7c) | inhibition [4]: inactive; inhibition [5]: inactive; Ratio IC50 (Homo sapiens [6]): > 250; Ratio IC50 (Homo sapiens [7]): > 250; Ratio IC50 (Homo sapiens [8]): > 250; Ratio IC50 (Homo sapiens [9]): 12; Activity (Mus musculus): inactive
4 | 95 nM | 1050 nM | 11 to 150 | CS(=O)(=O)NC(=O)CCN1CC(C(=O)NCCCc2ccc(Cl)c(Cl)c2)=C(O)C1=O | 
5 | 41 nM | 1760 nM | 11 to 150 | CN1CC(C(=O)NCCCc2ccc(Cl)c(Cl)c2)=C(O)C1=O | IC50 [10]: 76 nM; IC50 (Lipoprotein lipase): > 37000 nM; pKa [11]: 4.8; Cmax [12]: 32 µM; AUC [13]: 24 µM·h; clearance [14]: 2.1 mL/min/kg; half-life [15]: 3.4 h; Cmax [16]: 8.2 µM; AUC [17]: 18 µM·h; half-life [18]: 3.2 h; bioavailability [19]: 76%
6 | 296 nM |  |  | CN1CC(C(=O)NCCc2ccc(Cl)c(Cl)c2)=C(O)C1=O | 
7 | 30 nM | 3520 nM | 11 to 150 | CCN1CC(C(=O)NCCCc2ccc(Cl)c(Cl)c2)=C(O)C1=O | 
8 | 190 nM |  |  | O=C(NCCCc1ccc(Cl)c(Cl)c1)C1=C(O)C(=O)N(CCN2CCOCC2)C1 | 
9 | 88 nM | 5290 nM | 60 to 100 | CN1C(=O)C(O)=C(C(=O)NCCCc2ccc(Cl)c(Cl)c2)C1C1CC1 (centres undefined) | 
10 | 44 nM | 264 nM |  | CCN1CC(C(=O)NC(C)CCc2ccc(Cl)c(Cl)c2)=C(O)C1=O (racemic) | 
11 | 59 nM | 5990 nM | > 50 | CCN1CC(C(=O)NCCCc2ccc(Cl)c(Cl)c2)=C(NCCc2ccncc2)C1=O | 
12 | 29 nM | 1770 nM | 60 to 100 | CN1C(=O)C(O)=C(C(=O)NCCCc2ccc(Cl)c(Cl)c2)C1CC(C)(C)C (centres undefined) | 
13 | < 10 nM | 3020 nM | > 50 | CCN1CC(C(=O)NCCCc2ccc(Cl)c(Cl)c2)=C(NC)C1=O | 
14 | 19 nM | 2440 nM | 11 to 150 | O=C(NCCCc1ccc(Cl)c(Cl)c1)C1=C(O)C(=O)N(CCCN2CCCC2=O)C1 | 
15 | 19 nM | 945 nM | > 50 | CCN1CC(C(=O)NCCCc2ccc(Cl)c(Cl)c2)=C(NCCOC(C)C)C1=O | 
16 | 61 nM |  |  | Cn1ccc(C(=O)NCCCc2ccc(Cl)c(Cl)c2)c(O)c1=O | IC50 [10]: 16 nM; IC50 (Lipoprotein lipase): > 90000 nM; inhibition [20]: Active; pKa [11]: 6.5; Cmax [12]: 25 µM; AUC [13]: 19 µM·h; clearance [14]: 2.5 mL/min/kg; half-life [15]: 4.9 h; Cmax [16]: 2 µM; AUC [17]: 16 µM·h; half-life [18]: 2.9 h; bioavailability [19]: 82%
17 |  |  | 11 to 150 | O=C(NCCCc1ccc(Cl)c(Cl)c1)C1=C(O)C(=O)N(Cc2ccccc2)C1 | 
18 | 910 nM | 835 nM |  | CCN1CC(C(=O)NC(C)CCc2ccc(Cl)c(Cl)c2)=C(O)C1=O (stereo in doubt; 7d) | 
19 |  | 826 nM | 11 to 150 | O=C(NCCCc1ccc(Cl)c(Cl)c1)C1=C(O)C(=O)N(CCOc2ccccc2)C1 | 
20 | 59 nM | 5750 nM | 60 to 100 | CN1C(=O)C(O)=C(C(=O)NCCCc2ccc(Cl)c(Cl)c2)C1c1ccccc1Cl (centres undefined) | 
